In brackets after ≈: the same amount, converted by molar mass. Read-outs that look alike come from different tables or passages of the source.
Tests used:
[1] = cited from earlier work
[2] = Phase solubility study of ilomastat with 2-hydroxypropyl-β-cyclodextrin (HPLC); format: physicochemical
Experimental: The mixture was left to stir overnight.
A flow rate of 1 mL/min was used with 0.1% trifluoroacetic acid in water and acetonitrile as eluents A and B, respectively, with a linear gradient from 80% A to 70% B in 17 minutes. The detection wavelength was 280 nm.
The mixture was left to stir overnight. Benzalkonium chloride (BAC) (0.8 mg) was then added to the mixture, and the mixture was filtered (0.22 μm PES).

[3] = system: Human Tenon fibroblast cells (HTFs)
Experimental: Human Tenon fibroblast cells (HTFs) were maintained in fibroblast culture medium composed of Dulbecco's modified Eagle's medium (DMEM) supplemented with 10% (vol/vol) fetal bovine serum (FBS), 2 mM L-glutamine, 100 IU/mL penicillin, and 100 g/mL streptomycin (all from Gibco Life Technologies, Paisley, Scotland, UK) at 37°C with 5% (vol/vol) CO2 in air. The medium was changed every 3 to 4 days until cells reached confluence. The cells were passaged at a ratio of 1:4. Cultures were used between passages 3 and 10 for the gel contraction experiments.[33]
HTF cells (7 × 10^4 cells/mL) were seeded in collagen type-1 lattice (150 μL) in a Matteck dish. […] The drug solutions were added to the lattice (2 mL) at each individual concentration and incubated at 37°C. The gels were imaged daily from day 0 to day 7, and the percent contraction was calculated based on the decrease in gel area using ImageJ software (http://imagej.nih.gov/ij/; provided in the public domain by the National Institutes of Health, Bethesda, MD, USA). […] Each formulation was tested in triplicate.

[4] = weak hydroxamic acid; cited from earlier work

SMILES | water solubility ([1]; water) | solubility ([2]; PBS, pH 7.4, read-out: aqueous solubility in PBS (pH 7.4)) | solubility ([2]; water, read-out: aqueous solubility in water) | solubility in balanced salt solution ([1]; balanced salt solution, 35.5°C) | inhibition of collagen gel contraction (in words) ([3]; 7-day incubation) | gel contraction ([3]; day 7, 0.01 μM ilomastat, HTFs in collagen, n = 3) | pKa [4]
CC(O)COC[C@H]1O[C@@H]2O[C@H]3[C@H](O)[C@@H](O)[C@@H](O[C@H]4[C@H](O)[C@@H](O)[C@@H](O[C@H]5[C@H](O)[C@@H](O)[C@@H](O[C@H]6[C@H](O)[C@@H](O)[C@@H](O[C@H]7[C@H](O)[C@@H](O)[C@@H](O[C@H]8[C@H](O)[C@@H](O)[C@@H](O[C@H]1[C@H](O)[C@H]2O)O[C@@H]8COCC(C)O)O[C@@H]7COCC(C)O)O[C@@H]6COCC(C)O)O[C@@H]5COCC(C)O)O[C@@H]4COCC(C)O)O[C@@H]3COCC(C)O (stereo partly drawn) [2-Hydroxypropyl-β-cyclodextrin] | 450000 µg/mL (≈ 292000 µM) | – | – | – | – | – | –
CNC(=O)[C@H](Cc1c[nH]c2ccccc12)NC(=O)[C@@H](CC(=O)NO)CC(C)C [ilomastat] | – | 160 µg/mL (≈ 412 µM) | 140 µg/mL (≈ 360 µM) | 161 µg/mL | significantly inhibited collagen gel contraction | 51.79% ± 2.05 | 8.9

— paper PMC5713897 (Investigative Ophthalmology & Visual Science, 2017)
